Source: patent US10086066B2, “Tissue targeted antigenic activation of the immune response to treat cancers” (Qu Biologics Inc., priority 2004, dated 2018)

Test system: 4T1 mammary carcinoma cells
Test: Indomethacin efficacy study QB35, 4T1 mammary carcinoma (tumour volume, CD11b+ cells)
Format: in vivo, mouse (Balb/c)
Method: In an effort to examine the efficacy of combining antigenic composition treatment with indomethacin. Briefly, experiments were designed wherein there were 10 mice in each of 4 groups with all treatments beginning on day 4 after tumour inoculation. All mice (Balb/c female) received 50,000 4T1 mammary carcinoma cells subQ on day 0. Thereafter, the 4 groups were treated as follows: 1) Indomethacin daily (in drinking water)+PBS subQ every 2 days; 2) Indomethacin daily (in drinking water)+S. aureus SSI subQ every 2 days; 3) Control vehicle daily (in drinking water)+PBS subQ every 2 days; and 4) Control vehicle daily (in drinking water)+S. aureus SSI subQ every 2 days.

COc1ccc2c(c1)c(CC(=O)O)c(C)n2C(=O)c1ccc(Cl)cc1 [Indomethacin]
frequency of CD11b+ cells in the tumors relative to the control (day 11, indomethacin daily in drinking water, with PBS or S. aureus SSI (FIG. 35)): significantly increased
CD11b+ cells in the tumours (day 22 (FIG. 36)): increase
